Results reported in patent publication US12729221B2, “Anti-inflammatory peptide and use thereof” (MITO QUEST CO., LTD., priority 2020, dated 2026).
Where no end group is shown, it is not given here.

Columns and labels:
recombinant MAVS protein = recombinant MAVS protein (Homo sapiens, UniProt Q7Z434); assay: Binding of fluorescence-labeled peptides to plate-coated recombinant MAVS protein
Protocol: Specifically, recombinant MAVS protein and fluorescence-labeled peptides MQP-37 and MQP-37A6 were used to check the binding affinity to the MAVS protein. First, 250 ng of recombinant MAVS protein was coated on a 96-well plate for ELISA, followed by blocking with 1% BSA/PBS solution. Thereafter, fluorescence-labeled peptides of various concentrations were added thereto and reacted for 2 hours, and the amount of peptide bound to the MAVS protein was checked by fluorescence measurement.

[1] = system: mouse sepsis models induced by LPS; assay: Mouse sepsis model induced by LPS, survival; assay type: in vivo, C57BL/6 wild-type mice
Protocol: Specifically, 2 mg/kg and 5 mg/kg LPS were administered into the abdominal cavity of 7-week-old C57BL/6 wild-type mice every 6 hours, and 1 hour later, 0.4 mg/kg, 2 mg/kg and 10 mg/kg novel peptides were additionally administered into the abdominal cavity of the mice. Then, the survival of the mice was checked for 4 days.

interleukin-6 (IL-6) = assay: LPS-induced IL-6 expression in IC21, ELISA; assay type: cell-based, mouse; conditions: 0.1 mg/ml LPS, 6 hours, FIG. 12A-A
Protocol: Specifically, LPS was used to induce an inflammatory response caused by bacterial infection. First, MQP-15, MQP-23, MQP-31, MQP-37 or MQP-Y9 was added to a serum-free cell culture medium containing 0.1 mg/ml LPS, followed by treatment with 1×10^5 cells of IC21 for 6 hours. Then, the supernatant was obtained and the expression levels of interleukin-6 (IL-6) and a tumor necrosis factor-alpha (TNF-a) were checked by ELISA.

NF-κB = assay: LPS-induced phosphorylation of NF-kB in IC21, Western blot; assay type: cell-based, mouse; conditions: LPS, Western blot, FIGS. 12B-D to 12B-F
Description: Specifically, LPS was used to induce an immune activation response caused by bacterial infection, and the phosphorylation of nuclear factor kappa-light-chain-enhancer of activated B cells (NF-kB) was checked to identify the mechanism of the immune activation response. […] Thereafter, the cells were washed with a PBS solution and then lysed with a RIPA buffer, and the supernatant was separated. In order to measure the change in the phosphorylation amount of NF-κB protein with the separated supernatant, the Western blot was performed as in Example 2.

interferon-beta (IFN-b) = assay: polyIC-induced IFN-b expression in MLE-12 cells, ELISA; assay type: cell-based, mouse; conditions: 5 mg/ml polyIC, 16 hours, 25 mM or 2 mM peptide, FIG. 9A
Protocol: Specifically, polyinosinic:polycytidylic acid (polyIC), which is a synthetic ribonucleic acid known to be associated with viral infection among the PAMPs and promotes the production of interferon and is analogous to an RNA virus gene, was used to induce a viral infection response. First, a serum-free cell culture medium containing 5 mg/ml polyIC and MQP-15, MQP-23, MQP-31, MQP-37, MQP-Y9 or MQP-T234 was treated with 1×10^5 cells of a mouse lung epithelial cell line (MLE-12) for 16 hours. Then, the supernatant was obtained and the expression level of interferon-beta (IFN-b) was checked by enzyme-linked immunosorbent assay (ELISA).
(§1) Specifically, LPS and ATP were used to induce an inflammasome response caused by bacterial infection, and polyIC was used to induce an inflammatory response caused by viral infection. First, 1 mg/ml LPS and 5 mM or 1 mM novel alanine-substituted peptide were mixed in a serum-free cell culture medium, followed by treatment with 1×10^5 cells of IC21. Thereafter, 5 mM ATP and 5 mM or 1 mM novel alanine-substituted peptide were mixed in a serum-free cell culture medium and treated for 30 minutes. Then, the supernatant was obtained and the expression level of IL-1b was checked by ELISA. Also, 5 mg/ml polyIC and 25 mM or 2 mM novel alanine-substituted peptide were mixed in a serum-free cell culture medium, followed by treatment with 1×10^5 cells of MLE-12 for 16 hours. Thereafter, the supernatant was obtained and the expression level of IFN-b was checked by ELISA.
as §1, with “2” for “5 mM or 1”, “amino acid-substituted” for “alanine-substituted”, “and” for “and 25 mM or”
Specifically, polyIC was used to induce a viral infection response. First, a serum-free cell culture medium containing 5 mg/ml polyIC and MQP-37, MQP-37A6, MQP-37D6W, MQP-37D6Y, MQP-37D6H, MQP-37D6K, MQP-37D6R or MQP-37D6V was treated with 1×10^5 cells of MLE-12 for 16 hours. Then, the supernatant was obtained and the expression level of IFN-b was checked by ELISA.

IL-1b = assay: LPS/ATP-induced IL-1b expression (inflammasome response) in IC21, ELISA; assay type: cell-based, mouse; conditions: 1 mg/ml LPS, 5 mM ATP 30 minutes
Protocol: as §1
as §1, with “2” for “5 mM or 1”, “amino acid-substituted” for “alanine-substituted”, “and” for “and 25 mM or”
Specifically, LPS was used to induce an inflammatory response caused by bacterial infection. First, MQP-37 or MQP-37A6 was added to a serum-free cell culture medium containing 0.1 mg/ml LPS, followed by treatment with 1×10^5 cells of IC21 for 6 hours. Then, the supernatant was obtained and the expression level of IL-6 was checked by ELISA. Also, the Western blot was performed and the phosphorylation of NF-κB was checked to identify the mechanism of immune activation response. Thereafter, LPS and ATP were used to induce an inflammasome response caused by bacterial infection, LPS and ATP were used. First, 1 mg/ml LPS and L- or D-MQP-37 and MQP-37A6 were mixed in a serum-free cell culture medium and treated with 1×10^5 cells of IC21. Then, 5 mM ATP and MQP-37 or MQP-37A6 were mixed in a serum-free cell culture medium and treated for 30 minutes. Thereafter, the supernatant was obtained and the expression level of IL-1b was checked by ELISA.

Sequence of recombinant MAVS protein (Q7Z434 whole entry, species assumed): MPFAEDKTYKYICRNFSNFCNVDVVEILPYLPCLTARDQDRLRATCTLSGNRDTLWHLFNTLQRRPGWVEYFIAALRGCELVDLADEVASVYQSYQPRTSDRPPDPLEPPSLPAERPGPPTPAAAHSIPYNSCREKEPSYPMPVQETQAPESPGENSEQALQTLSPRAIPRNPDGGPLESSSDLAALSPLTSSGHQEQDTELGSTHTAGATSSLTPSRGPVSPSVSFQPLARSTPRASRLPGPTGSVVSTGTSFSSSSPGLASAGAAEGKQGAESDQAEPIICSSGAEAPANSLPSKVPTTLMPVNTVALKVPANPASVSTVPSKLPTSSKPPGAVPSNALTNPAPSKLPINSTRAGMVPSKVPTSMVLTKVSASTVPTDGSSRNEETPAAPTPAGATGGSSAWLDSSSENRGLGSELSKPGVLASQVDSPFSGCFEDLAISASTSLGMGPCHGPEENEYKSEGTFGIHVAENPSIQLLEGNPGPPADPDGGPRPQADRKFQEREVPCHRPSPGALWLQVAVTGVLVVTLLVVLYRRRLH

SLVLAAARW [MQP-37A6]
Kd (recombinant MAVS protein): ~750 µM
treating sepsis [1]: effective
inflammatory response caused by bacterial infection (IL-6), compared with MQP-37 (interleukin-6 (IL-6)): more than the original peptide MQP-37
immune activation response (NF-κB phosphorylation), compared with MQP-37 (NF-κB): more than the original peptide MQP-37
inflammatory response caused by viral infection (IFN-b), compared to original MQP-37 (interferon-beta (IFN-b)): significantly improved
inflammasome response caused by bacterial infection (IL-1b), sixth amino acid of MQP-37 substituted (IL-1b; 2 mM peptide, FIG. 10A-B): most effectively
inflammasome response caused by bacterial infection (IL-1b), compared to original MQP-37 (IL-1b; 5 mM or 1 mM peptide, FIG. 9A): significantly improved
inflammasome response caused by bacterial infection (IL-1b), compared with MQP-37 (IL-1b; FIGS. 12A-B and 12A-C): more than the original peptide MQP-37
